{"source": "patent US10532987B2", "about": "“Compounds and methods for inducing browning of white adipose tissue” (GUANGZHOU INSTITUTES OF BIOMEDICINE AND HEALTH, CHINESE …, priority 2015, dated 2020)", "key": {"Ucp1": {"tested_on": "Ucp1", "assay": "UCP1 luciferase assay (Ucp1 up-regulation in differentiated inguinal adipocytes of Ucp1-luciferase knock-in mice)", "format": "cell-based", "conditions": "Mus musculus, Adipocyte, 48 h; at 3 μM; 2 days treatment; luciferase activity; read-out: Ucp1 activation fold/corresponding concentration", "description": "TEST EXAMPLE 1 UCP1 Luciferase Assay\nEvaluating Compounds that Induce Ucp1 Up-Regulation\nUcp1-luciferase knock-in mice will be housed in cages and fed on standard chow diets (the detailed procedures please see reference 14). The 8-week-old mice will be killed by the cervical dislocation and put into 75% alcohol for 5 minutes. The inguinal adipose tissue will be dissected out and transferred to the three 10-cm petri dishes and washed with PBS for three times. The adipose tissue will be dissected and minced on a 10-cm petri dish for several minutes and then pipetted into 20 ml 0.1% collagenase solution in 50 ml conical tubes and digested at 37° C. for 1 hour. Next, 20 ml culture medium will be added to terminate the digestion and centrifuged for 10 minutes at 1000 rpm respectively. The supernatants will be removed and the pellets re-suspended in 10 mL culture medium and plated into 10-cm plates. The cells will be left to adhere to the plates overnight and the culture medium will be changed every other day. The confluent cells will be trypsinized, counted and plated to 24-well plate (5×10^4 cells/well). The cells will be washed and re-fed the next day (as day −2). Two days later (day 0), the cells will usually become confluent and be induced to differentiate with MDIR medium. On day 2, the medium will be changed to IR medium and re-fed every 2 days. Complete differentiation is usually achieved by day 10. On day 10, the medium will be changed to the culture medium of 10% FBS/DMEM with indicated drugs along with the positive and negative controls for 2 days. The media will be removed and the cells washed with 1 ml PBS per well three times. Then 100 μl lysis buffer will be used to lyse the cells at 4° C. for 1 hour. 30 μl culture medium, 30 μl cell lysates and 60 μl Steady-Glo® Reagent were added to a well of 96-well-plate and the luminescence will be measured using a luminometer. The protein concentration will be determined using 20 μl cell lysates and specific activity of luciferase will be tabulated and data analyzed."}, "white adipose tissue": {"tested_on": "white adipose tissue", "assay": "High fat diet induced obesity mouse model; hematoxylin and eosin staining and UCP1 immunochemistry of adipose tissue", "format": "in vivo, mice", "conditions": "50 mg/kg daily gavage, compared with control group", "description": "8-week-old male mice (57BL/6J) were housed in metabolism cages and maintained on a 12 h lightdark cycle at 23° C. and fed high fat diet (HFD) (21.9 kJ/g, 60% of energy as fat, 20% of energy as protein, 20% of energy as carbohydrate; D12492; Research Diet, New Brunswick, N.J., USA) for 8 weeks. Then, diets induced obese mice were randomized into two groups according to glucose levels and body weight and gavaged with daily indicated drugs (50 mg/kg) or vehicle. Food intake and body weight was measured weekly. All experiments with animals were approved by the Animal Care and Use Committee of Guangzhou Institute of Biomedicine and Health, Chinese Academy of Sciences.\nHematoxylin and eosin staining was performed as the standard protocol (see reference 15). As to the results, please see FIG. 1 (left panel) using compound 1 as the test compound.\nWash sections in dH2O three times for 5 minutes each. Incubate sections in 3% hydrogen peroxide for 10 minutes. Wash sections in dH2O twice for 5 minutes each, and then wash sections in wash buffer for 5 minutes. Block each section with 100-400 μl blocking solution for 1 hour at room temperature. Remove blocking solution and add 100-400 μl primary UCP1 antibody to each section. Incubate overnight at 4° C. Remove antibody solution and wash sections in wash buffer three times for 5 minutes each. […]"}}}
{"compound": "COc1ccc(-c2csc(Nc3ccccn3)n2)cc1OC", "note": "[Compound 1, 4-(3,4-dimethoxyphenyl)-N-(pyridin-2-yl)thiazol-2-amine]", "values": [{"measurement": "fold induction at 3 µM", "setting": "Ucp1", "result": 5.2}, {"measurement": "browning of adipose tissue (hematoxylin and eosin staining and UCP1 immunochemistry)", "setting": "white adipose tissue; 16-week-old obese mice (57BL/6J) induced by high fat diet for 8 weeks", "result": "promotes browning of adipose tissue"}, {"measurement": "adipose tissue cell size and cell number", "setting": "white adipose tissue; 16-week-old obese mice induced by high fat diet for 8 weeks", "result": "reduced cell size and increased cell number"}]}
